From patent publication US20220095617A1, “PLANT GROWTH REGULATING AGENT” (IDEMITSU KOSAN CO.,LTD., priority 2019, published 2022)
Several values for one entry are separate records, joined by “and”; a condition that tells them apart may be missing. Equal values may be shown once. Read-outs that look alike come from different tables or passages of the source.

Tests used:
lettuce (Green Wave) [1] = experiment: Example 9: High-temperature stress pot test (lettuce); type: in vivo; settings: for Fresh weight of above-ground part, Increase rate / Fresh weight of underground part, Increase rate: non-addition group = 100.0; for Fresh weight of above-ground part, Average / Fresh weight of underground part, Average: greenhouse 35° C., 20 days
Method: Immediately after the sowing, drenching treatment was carried out with 5 ml/well of a dilution of hesperidin prepared at a final concentration of 100 to 1000 ppm (using water as the solvent). A non-addition group was similarly subjected to drenching treatment using distilled water. High-temperature treatment was carried out by cultivation for 20 days in a greenhouse where the average daytime temperature was 35° C., and then the fresh weight of the above-ground part and the fresh weight of the underground part were evaluated. For each group, 15 to 20 measurement results were obtained (N=15 to 20).

lettuce (Green Wave) [2] = experiment: Example 1: High-temperature stress Petri dish test (lettuce), comparison with other natural products; type: in vivo; settings: 0.1 ppm in agar medium
Cabbage (Okina) [3] = experiment: Example 10: High-temperature stress pot test (cabbage); type: in vivo; settings: for Fresh weight of above-ground part, Increase rate / Fresh weight of underground part, Increase rate: non-addition group = 100.0; for Fresh weight of above-ground part, Average / Fresh weight of underground part, Average: greenhouse 35° C., 30 days
Method: Cabbage (Okina, Takii & Co., Ltd.) was sown on a cell tray filled with seedling culture soil (manufactured by Nihon Hiryo Co., Ltd.; “Naebijin N100”). […] Cultivation was carried out in a greenhouse (average daytime temperature, 35° C.) for 30 days, and then the fresh weight of the above-ground part and the fresh weight of the underground part were evaluated. For each group, 15 to 20 measurement results were obtained (N=15 to 20).

lettuce (Green Wave) [4] = experiment: Example 23: Metal stress Petri dish test (lettuce); type: in vivo; settings: Metal stress (AlCl3 100 μM), 1 ppm
[5] = test system: Zoysia tenuifolia (Korean velvet grass); experiment: Example 12: Low-temperature stress field test (lawn grass); type: in vivo; settings: for Number of sprouts, Average: three months after final spraying, low temperature; for Number of sprouts, Increase rate: non-addition group = 100.0
Method: In the research institute, a wettable powder formulation containing 1% hesperidin having the formulation composition shown in Table 11 was applied a total of four times by foliar spraying at a ratio of 0.15 to 0.75 g/m^2 (amount of water sprayed, 250 ml) every other week from late October to late December in 2017. Three months after the final spraying, the lawn grass was collected using a hole cutter, and the number of sprouts was measured. For each group, three measurement results were obtained (N=3).
In the period from November 2017 to March 2018, the highest temperature was 16.6° C.; the lowest temperature was −3.7° C.; and the average temperature was 6.0° C. Since the optimum growth temperature of Zoysia tenuifolia (Korean velvet grass) is 24 to 35° C., and it enters a period of dormancy at 10° C. or less, the plant was judged to have been affected by the low-temperature stress.

Sphaerotheca cucurbitae = experiment: Example 20: Control effect against cucumber powdery mildew; type: in vivo; settings: 14 days
Method: […] cucumber (Hanjirofushinari, Takii & Co., Ltd.) in the two leaf stage, and foliar spraying of 15 ml each of dilutions of hesperidin prepared at final concentrations of 10 to 1000 ppm (using 0.01% Tween 20 solution as the solvent) was carried out. After air-drying, foliar spraying of cucumber powdery mildew spores (1×10^4 spores/ml, using 0.01% Tween 20 solution as the solvent) was carried out. After air-drying, cultivation was carried out in a greenhouse for 14 days, and then the control effect was evaluated.
Preventive value=100−(damage in the addition group/damage in the non-addition group)×100 (Equation 3)

Cabbage (Okina) [6] = experiment: Example 18: Growth-promoting effect (cabbage, seed dressing); type: in vivo; settings: for Increase/decrease of above-ground part / Increase/decrease of underground part: non-addition group = 100%; for Weight of above-ground part FW / Weight of underground part FW: 25° C., 28 days
Method: For cabbage (Okina, Takii & Co., Ltd.), seed dressing was carried out by application, at 5% seed weight, of a dilution of hesperidin prepared at a final concentration of 1 to 100 ppm (using water as the solvent). The dressed cabbage seeds were sown on a cell tray filled with seedling culture soil (manufactured by Nihon Hiryo Co., Ltd.; “Naebijin N100”). […]

tomato (Momotaro Home) = experiment: Example 24: Dry stress Petri dish test (tomato); type: in vivo; settings: Dry stress (20 g/L polyethylene glycol); for Root length, Average: 28° C., 12 days; for Root length, Increase rate: non-addition group = 100.0
Excerpt: For each group, three measurement results were obtained (N=3).

lettuce (Green Wave) [7] = experiment: Example 2: High-temperature stress Petri dish test (lettuce), blending with neohesperidin; settings: 0.1 ppm
Method: For seeds, 2% water agar medium (using water as the solvent), which was prepared such that hesperidin (Fujifilm Wako Pure Chemical Corporation; special-grade reagent) and neohesperidin (Fujifilm Wako Pure Chemical Corporation; special-grade reagent) were contained at the predetermined final concentrations shown in Table 2, was filled into square Petri dishes (“model number: D-210-16”, manufactured by As One Corporation). Before high-temperature treatment, lettuce (Green Wave, Takii & Co., Ltd.) was sown on 2% water agar medium, and lettuce seedlings on day 2 after the sowing were transplanted to the above-described agar medium to which the hesperidin and/or the like was/were added. At the time of the transplantation, the tip of the root was marked. Each Petri dish after the transplantation was placed in an incubator (“model number: FLI-2010A”, manufactured by EYELA) at an angle of 45° with respect to the bottom surface, and high-temperature treatment was carried out at 42° C. for 1.5 hours. Thereafter, culture was similarly performed at 23° C. for 2 days, and then the increase in the root length was evaluated in terms of elongation from the tip of the root of each seedling at the time of the transplantation. In addition, for evaluation of the effect of the mixture of hesperidin and neohesperidin in normal cultivation, culture was similarly performed at 23° C. without performing the high-temperature treatment, followed by evaluation of the increase in the root length. […] The Colby's equation is as follows.
E=(x+y)−(x·y)/100 Colby's equation:
E: Expected root length x: Root length in the case of application of hesperidin alone y: Root length in the case of application of neohesperidin alone For each group, 15 measurement results were obtained (N=15).

[8] = test system: Carrot (US Harumakigosun carrot) seeds; experiment: Example 7: High-temperature stress Petri dish test (carrot seeds); type: in vivo; settings: for Germination rate, Increase rate: non-addition group = 100.0; for Germination rate, Average: seeds 55° C. hot water 20 minutes, 23° C. 7 days
Method: Carrot (US Harumakigosun carrot, The Yokohama Nursery Co., Ltd.) seeds were soaked in hot water at 55° C. for 20 minutes to perform high-temperature treatment. […] A group similarly soaked in distilled water was provided as a non-addition group. After the soaking treatment, the seeds were dried in air, and then 20 seeds were sown on each of shallow Petri dishes in which qualitative filter paper was placed. To the filter paper in each Petri dish, 3 mL of distilled water was uniformly added dropwise. […] For each group, three measurement results were obtained (N=3).

Phythophthora infestans = type: in vivo; settings: 14 days

## COc1ccc([C@@H]2CC(=O)c3c(O)cc(O[C@@H]4O[C@H](CO[C@@H]5O[C@@H](C)[C@H](O)[C@@H](O)[C@H]5O)[C@@H](O)[C@H](O)[C@H]4O)cc3O2)cc1O [Hesperidin]
Lettuce (Green Wave) [1]; 100 ppm
  Fresh weight of above-ground part, Increase rate: 114.4%
  Fresh weight of underground part, Increase rate: 122.8%
Lettuce (Green Wave) [1]; 1000 ppm
  Fresh weight of above-ground part, Increase rate: 109.1%
  Fresh weight of underground part, Increase rate: 93.9%
Lettuce (Green Wave) [1]; drenching 100 ppm
  Fresh weight of above-ground part, Average: 0.76 g
  Fresh weight of underground part, Average: 0.29 g
Lettuce (Green Wave) [1]; drenching 1000 ppm
  Fresh weight of above-ground part, Average: 0.72 g
  Fresh weight of underground part, Average: 0.22 g
Lettuce (Green Wave) [2]; High-temperature treatment (42° C., 1.5 hours), then 23° C. 2 days
  Root length: 24.0 mm
Lettuce (Green Wave) [2]; Normal cultivation
  Root length: 25.1 mm
Cabbage (Okina) [3]; 100 ppm
  Fresh weight of above-ground part, Increase rate: 118.0%
  Fresh weight of underground part, Increase rate: 130.6%
Cabbage (Okina) [3]; 1000 ppm
  Fresh weight of above-ground part, Increase rate: 97.1%
  Fresh weight of underground part, Increase rate: 103.2%
Cabbage (Okina) [3]; drenching 100 ppm
  Fresh weight of above-ground part, Average: 0.87 g
  Fresh weight of underground part, Average: 0.32 g
Cabbage (Okina) [3]; drenching 1000 ppm
  Fresh weight of above-ground part, Average: 0.72 g
  Fresh weight of underground part, Average: 0.25 g
Lettuce (Green Wave) [4]
  Root length, Average: 22.87 mm
Lettuce (Green Wave) [4]; non-addition group = 100.0
  Root length, Increase rate: 137.6%
[5]; 0.15 g/m^2, foliar spraying four times as wettable powder formulation containing 1% hesperidin
  Number of sprouts, Average: 111.33 number
[5]; 0.15 g/m^2
  Number of sprouts, Increase rate: 189.8%
[5]; 0.75 g/m^2, foliar spraying four times as wettable powder formulation containing 1% hesperidin
  Number of sprouts, Average: 112.00 number
[5]; 0.75 g/m^2
  Number of sprouts, Increase rate: 190.9%
Sphaerotheca cucurbitae; 10 ppm foliar spraying on cucumber
  Preventive value: 5.0
Sphaerotheca cucurbitae; 100 ppm foliar spraying on cucumber
  Preventive value: 50.0
Sphaerotheca cucurbitae; 1,000 ppm foliar spraying on cucumber
  Preventive value: 68
Cabbage (Okina) [6]; 1 ppm
  Increase/decrease of above-ground part: 106%
  Increase/decrease of underground part: 108%
Cabbage (Okina) [6]; 10 ppm
  Increase/decrease of above-ground part: 112%
  Increase/decrease of underground part: 106%
Cabbage (Okina) [6]; 100 ppm
  Increase/decrease of above-ground part: 106%
  Increase/decrease of underground part: 101%
Cabbage (Okina) [6]; seed dressing 1 ppm
  Weight of above-ground part FW: 54.0 mg/individual
  Weight of underground part FW: 15.6 mg/individual
Cabbage (Okina) [6]; seed dressing 10 ppm
  Weight of above-ground part FW: 57.2 mg/individual
  Weight of underground part FW: 15.3 mg/individual
Cabbage (Okina) [6]; seed dressing 100 ppm
  Weight of above-ground part FW: 53.9 mg/individual
  Weight of underground part FW: 14.6 mg/individual
Cabbage (Okina) [6]; seed dressing, growth promotion
  optimum concentration of hesperidin to be added for cabbage: lower than 100 ppm
Tomato (Momotaro Home); 0.1 ppm
  Root length, Average: 49.89 mm
  Root length, Increase rate: 214.2%
Tomato (Momotaro Home); 1 ppm
  Root length, Average: 55.81 mm
  Root length, Increase rate: 239.6%
Lettuce (Green Wave) [7]; High-temperature treatment (42° C., 1.5 hours)
  Root length: 10.9 mm
Lettuce (Green Wave) [7]; Normal cultivation
  Root length: 19.2 mm
[8]; 100 ppm
  Germination rate, Increase rate: 215.8%
[8]; 1000 ppm
  Germination rate, Increase rate: 173.7%
[8]; then soaked at 100 ppm
  Germination rate, Average: 68.3%
[8]; then soaked at 1000 ppm
  Germination rate, Average: 55.0%
Phythophthora infestans; 10 ppm foliar spraying on tomato (Regina)
  Preventive value: 37.4
Phythophthora infestans; 30 ppm foliar spraying on tomato (Regina)
  Preventive value: 86.0
Phythophthora infestans; 100 ppm foliar spraying on tomato (Regina)
  Preventive value: 92 and 92.1
